The values below come from patent US7579488B2 (Eli Lilly and Company, priority 2003, dated 2009).

Series [1] deals with female DBF mice. The conditions noted are these: in vivo, po.
From the text: The Mouse Hypercalcemia Assay
(§1) The Mouse Hypercalcemia Assay is a six day hypercalcemia test for toxicity and selectivity.
(§2) (4) Materials and Method for the Mouse Hypercalcemia Assay:
(§3) Weanling, virus-antibody-free, five to six weeks old female DBF mice (Harlan, Indianapolis, Ind.) are used for all the studies. Animals are allowed to acclimate to local vivarium conditions for 2 days. […] The animals then are divided into groups with 4-5 mice per group. Different doses of test compounds prepared in 10% Ethanol and 90% sesame oil are administered to mice orally via gavage for 6 days. 1α-25(OH)2D3 0.5 μg/kg/d was also given to one group of mice as the positive control. […] Raw data of group differences is assessed by analysis of variance (ANOVA) using Fisher's protected least significant difference (PLSD) where the significance level was P<0.05.
Series [2] concerns female DBF mice. Put plainly: Mouse hypercalcemia assay. The conditions noted are these: oral gavage for 6 days; serum ionized calcium 6 hours after last dosing.
From the text: The Mouse Hypercalcemia Assay
as §1, §2, §3
Another series deals with T1, VDR (Homo sapiens, UniProt P11473).
T1 construct: the receptor expression vector pGal4-VDR-LBD (10 ng); expressed in transfected cells; host or cells: Caco-2 cells
T1 sequence (P11473 127-423 limits assumed): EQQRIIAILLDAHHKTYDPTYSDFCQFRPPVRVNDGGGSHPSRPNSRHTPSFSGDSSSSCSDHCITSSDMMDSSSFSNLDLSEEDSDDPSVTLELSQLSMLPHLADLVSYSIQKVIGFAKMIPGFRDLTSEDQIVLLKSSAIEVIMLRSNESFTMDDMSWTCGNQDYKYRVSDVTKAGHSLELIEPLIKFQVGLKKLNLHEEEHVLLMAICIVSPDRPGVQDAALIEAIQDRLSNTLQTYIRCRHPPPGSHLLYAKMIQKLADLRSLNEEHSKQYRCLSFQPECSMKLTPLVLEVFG
As to the kind of experiment: VDR CTF (Caco-2 cell co-transfection) assay. It is filed as cell-based. The conditions noted are these: Caco-2 cells, pGal4-VDR-LBD co-transfection, luciferase; several values separated by /. As to the method: 2. The Caco-2 Cell Co-Transfection Assay:
The Caco-2 cell assay is an indicator for the undesirable condition of hypercalcemia. This co-transfection assay is a surrogate assay for in vivo calcemic activity of VDR ligands. […] Preferred assay results are greater than 1000 nM.
(2) Materials and Method for the Caco-2 Cell Assay:
Caco-2 cells, grown in phenol red free, DMEM (Invitrogen, Carlsbad, Calif.) containing 10% charcoal-stripped FCS (Hyclone, Logan, Utah), were transfected with Fugene 6 reagent (Roche Diagnostics, Indianapolis, Ind.). Cells (5000/well) were plated 18 h before transfection in a 96 well plate. The Cells were transfected with Gal4-responsive reporter pFRLuc (150 ng, Stratagene, La Jolla Calif.) and the receptor expression vector pGal4-VDR-LBD (10 ng), along with Fugene 6 reagent (0.2 μl/well). The DNA-Fugene complex was formed by incubating the mixture for 30 min at room temperature. The cells were transfected in triplicate for 5 h, and treated with various concentrations of VDR ligands (form 0.01 nM to 10,000 nM concentration range) 18 h post-transfection. The luciferase activity was quantified using Steady-Glo reagent kit (Promega, Madison, Wis.) as per manufacturer's specifications.

The next series concerns rat osteocalcin promoter. Put plainly: OCN (osteocalcin) promoter assay. The series is classed as cell-based. The conditions noted are these: RG-15 (ROS 17/2.8) cells, 48 hr treatment, luciferase, several values separated by /. The procedure, abridged: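 Rat osteoblast-like RG-15 (ROS 17/2.8) cells stably carrying a luciferase reporter driven by the osteocalcin promoter, treated with compounds in DMSO (0.01% v/v final) in medium with 2% FBS. After 48 hr at 37 °C, cells were lysed and luciferase activity measured.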

A further series relates to IL-10. Put plainly: IL-10 induction assay. The series is classed as cell-based. The conditions noted are these: Homo sapiens, PBMC, TPA/PHA stimulated human PBMCs, IL-10 in supernatant by immunoassay; several values separated by /. The text has this:
6. The IL-10 Induction Assay
This is an in vitro efficacy assay for psoriasis, abscess and adhesion. Psoriasis involves both keratinocytes and immune cells. IL-10 is a unique cytokine because it is anti-inflammatory and immunosuppressive. This assay tells us whether a VDRM is able to function as an agonist in PBMCs ([…]) or not.
(6) Materials and Method for Human IL-10 Induction Assay:
Isolation of Peripheral Blood Mononuclear Cells (PBMCs):
B. Prepare sterile tubes with ficol.
C. Add diluted blood to tubes.
E. Discard the top layer and collect the cells from middle layer.
F. Divide all cells into four tubes and add media.
H. Aspirate off media and resuspend.
J. Centrifuge. at 1200 rpm for 10 minutes.
M. Dissolve PHA in water.
N. Plate TPA/PHA treated PBMCs in well plates.
Sample Collection and Assay:
S. Remove all the cells by centrifugation and assay the supernatant for IL-10 by immunoassay.
1) T. Perform […] using anti-human IL-10 antibody coated beads, as described by the manufacturer (Linco Research Inc., St. Charles, Mo.).

Another series deals with T2, RXR-VDR heterodimer (Homo sapiens, UniProt P11473).
T2 construct: Add the Gal4-RXR-DEF and VP16-VDR-LBD; expressed in transfected cells; host or cells: SaOS-2 cells
T2 sequence (P11473 127-423 limits assumed): T1 sequence (P11473 127-423 limits assumed)
T2 sequence (P19793 201-462 partner limits assumed): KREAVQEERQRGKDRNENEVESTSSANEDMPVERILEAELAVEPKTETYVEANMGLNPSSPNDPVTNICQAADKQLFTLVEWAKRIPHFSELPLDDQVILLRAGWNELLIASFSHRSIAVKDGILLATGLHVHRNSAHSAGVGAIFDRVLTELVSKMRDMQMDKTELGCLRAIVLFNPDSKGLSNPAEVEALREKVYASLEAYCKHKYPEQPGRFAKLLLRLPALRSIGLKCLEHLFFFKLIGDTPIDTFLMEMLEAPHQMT
Put plainly: RXR-VDR heterodimerization assay (SaOS-2 cells). The series is classed as cell-based. The conditions noted are these: Gal4-RXR-DEF/VP16-VDR-LBD luciferase reporter, several values in a cell separated by /. In general terms: In a reporter assay the amount or activity of a reporter protein is the signal.

In the next series the test system is KERtr cells. As to the kind of experiment: Keratinocyte proliferation assay. It is filed as cell-based. The conditions noted are these: Homo sapiens, 72 h, BrdU incorporation, several values separated by /, read-out: Kera. Prolif. IC50. (In general: Uptake of a labelled nucleoside into DNA is a usual measure of proliferation.)

Values joined by “and” are separate entries in the source; they are usually repeats but may differ in a detail not shown here. Equal entries are not always repeated. Where two headings read alike, the source gives them in different places. A value given as a limit tells only on which side of the number the result lay.

As for `C=C1/C(=C\C=C2/CCC[C@]3(C)[C@@H]([C@H](C)CCCC(C)(C)O)CC[C@@H]23)C[C@@H](O)C[C@@H]1O` [AA, 1α,25-dihydroxyvitamin D3], the “Mouse Hypercal” value in the series on female DBF mice [1] is 0.06 µg/kg/day.
One may read the EC50 as the concentration giving half of the maximal effect. A word on the IC50: it is the concentration at which inhibition is half-maximal. Take `CCC(CC)(c1ccc(OCC(=O)C(C)(C)C)c(C)c1)c1cc(C)c2oc(C(=O)O)cc2c1` [Ex 21, 5-{1-[4-(3,3-dimethyl-2-oxo-butoxy)-3-methyl-phenyl]-1-ethyl-propyl}-7-methyl-benzofuran-2-carboxylic acid]: the “Mouse Hypercal” value in the series with female DBF mice [2] was above 1000 µg/kg/day. Further, the EC50 at VDR is 462 nM; in the series with rat osteocalcin promoter, 0.001 µM; in the series with rat osteocalcin promoter (Rattus norvegicus, 48 h) it was 0.002 µM; at RXR-VDR heterodimer it was 0.05 µM and 0.005 µM. Also, the IC50 in the series on IL-10 was 0.08 µM; with KERtr cells, 0.018 µM.
As to `CCC(CC)(c1ccc(OCC(=O)C(C)(C)C)c(C)c1)c1ccc2oc(C(=O)NCC(=O)O)cc2c1` [Ex 32, [(5-{1-[4-(3,3-dimethyl-2-oxo-butoxy)-3-methyl-phenyl]-1-ethyl-propyl}-benzofuran-2-carbonyl)-amino]-acetic acid], the “Mouse Hypercal” value in the series on female DBF mice [2] was above 300 µg/kg/day. Further, the EC50 at VDR is 385 nM; with rat osteocalcin promoter (Rattus norvegicus, 48 h), 0.001 µM; at RXR-VDR heterodimer, 0.031 µM and 0.004 µM. Further, the IC50 with IL-10 was 0.051 µM; in the series on KERtr cells it was 0.01 µM.
`CCC(CC)(c1ccc(OCC(=O)C(C)(C)C)c(C)c1)c1cc2cc(C(=O)Nc3nn[nH]n3)ccc2o1` [Ex. 11, 2-{1-[4-(3,3-dimethyl-2-oxo-butoxy)-3-methyl-phenyl]-1-ethyl-propyl}-benzofuran-5-carboxylic acid (2H-tetrazol-5-yl)-amide]: the “Mouse Hypercal” value in the series with female DBF mice [2] is above 1000 µg/kg/day. Moreover, the figures for the EC50 on VDR and at RXR-VDR heterodimer were 819 nM and 0.73 µM, respectively. Besides, the IC50 was above 2 µM with IL-10 and 0.009 µM in the series on KERtr cells.
On to `CCc1cc(C(CC)(CC)c2cc3cc(C(=O)O)ccc3o2)ccc1OCC(=O)C(C)(C)C` [Ex. 12], for which, in the series on female DBF mice [2], the “Mouse Hypercal” value is above 1000 µg/kg/day. Moreover, the EC50 at VDR amounted to 515 nM; in the series on rat osteocalcin promoter (Rattus norvegicus, 48 h), 0.0007 µM. Also, the figures for the IC50 in the series on IL-10 and in the series with KERtr cells were 0.049 µM and 0.016 µM, respectively.
